Seven molecules from US20240150396A1 (The Texas A&M University System, priority 2021, published 2024) can be followed below.

“And” between values parts separate entries of the source, which are not always exact repeats. Equal entries are not always repeated. Where two headings read alike, the source gives them in different places. Non-standard residues stand in square brackets, D forms with d. Residues, ends and D or L forms follow the SMILES beside them. *: point of attachment. Phe(2-OMe) = COc1ccccc1C[C@H](N)C(=O)O; hPhe = N[C@@H](CCc1ccccc1)C(=O)O; AMC = Cc1cc(=O)oc2cc(N*)ccc12; Cbz = O=C(OCc1ccccc1)*

Assay [1] addresses T1, cruzain (Trypanosoma cruzi, UniProt P25779). Briefly: biochemical. The note with it: pH 7.5. As for the experimental part: All enzyme assays were performed at 25° C. Initial rates of the peptidolytic reaction catalyzed by cruzain were measured by monitoring the fluorescence generated by cleavage of the dipeptide-AMC bond. Assays were conducted in 96-well plates (Greiner; flat-bottom, clear black plates) in a total volume of 250 μL, containing either 50 mM MES (pH 7.5), 50 mM TAPSO, 100 mM DEA, 1 mM CHAPS, 1 mM Na2EDTA, 5 mM DTT, and 10% DMSO (v/v) or 50 mM sodium acetate (pH 5.5), 50 mM MES, 100 mM TEA, 1 mM CHAPS, 1 mM Na2EDTA, 5 mM DTT, and 10% DMSO (v/v). Substrates were dissolved in 100% DMSO and were then diluted 10-fold such that when added to reaction mixtures, final DMSO concentration was 10% (v/v). […] Fluorescence was measured on either a SpectraMax M5 (Molecular Devices) or a Synergy HTX (BioTek, Winooski, VT) microplate reader (λex=360 nm, λem=460 nm). Initial rates were determined from continuous kinetic time courses and calculated from the earliest time points, typically at less than 10 min.
(2) Enzyme and compound were preincubated over extended periods of time, and then aliquots were removed and diluted 50-fold to 100-fold into reaction mixtures containing 10 μM Cbz-Phe-Arg-AMC, followed by the assessment of the resulting time courses.
Data for time-dependent inhibition were fitted by several methods.
Values of kobs versus [inhibitor] were then replotted and fitted to eq 4 for which k3 and k4 represent the respective rates of formation and dissolution of the EI* complex as depicted in FIG. 9.
In addition, time-course data were fitted globally by two methods. First, expressions for vs, vi, and kobs were substituted into eq 3 to generate eq 6, which was used to fit time-course data at all concentrations of inhibitors simultaneously. Second, time-course data were fitted using KinTek Explorer as either a single-binding step model with the two kinetic parameters k3/Ki and k4 or a two-step binding mechanism as shown in FIG. 9 from which rate constants k1-k4 are determined (Supporting Information).
Enzyme Assays. The preparation of cruzain and 3CL^pro were described in previous publications.^8, 34 The evaluation of inhibitors was modified from our lab protocol and described briefly as follows.^35 All enzyme assays were conducted in 96-well, clear bottom, black plates at 25° C., and fluorescence emanating from product formation was measured using either a SpectraMax M5 (Molecular Devices) or a Synergy HTX (Biotek) microplate reader, with excitation at λex=360 nm and emission at λem=460 nm. […] Reactions were started with addition of enzyme (typically, to a final concentration of 0.2 nM for cruzain or 40 nM for 3CL^pro), and the time courses were recorded for 0.5-1 h.
Kinetic Data Analysis. All time-course data were fitted to eq. 1, wherein P is the fluorescence generated by formation of AMC or liberated ACC, C is the background constant, vi and vs are respectively initial-state and steady-state reaction rates, t is time, and kobs is the observed rate of conversion of the initial inhibited rate to the final inhibited rate.^46
Overall inhibition constants (Ki* values) were obtained by fitting vs/v0 to eq. 4, wherein vs and v0 are steady-state reaction rates in the presence and absence of inhibitor respectively, [S] and [I] represent the fixed concentration of substrate and variable inhibitor, Km is the Michaelis constant of the substrate.

For assay [2], the target named is SARS-CoV-2 3CL protease (Severe acute respiratory syndrome coronavirus 2 (2019-nCoV) (SARS-CoV-2), UniProt P0DTD1). Briefly: biochemical. The following applies: read-out: Ki* 3CLpro. Format: biochemical.
In assay [3] the target is human cathepsin L (Homo sapiens (Human), UniProt P07711). Put plainly: Human cathepsin L inhibition, Z-FR-AMC assay. It counts as biochemical. As for the experimental part: (§1) Recombinant human cathepsins B and L were purchased from Millipore Sigma and used without further treatment. The solid proteins were dissolved into a solution of 50 mM sodium acetate (pH 5.5), 1 mM EDTA, 1 mM CHAPS, 10% (v/v) DMSO, and 5 mM DTT to final concentrations of […] in 20-mL aliquots, and stored at −80° C. until needed. These samples were then diluted into the same buffer to concentrations of −100 nM, and these dilutions were stored at 4° C. and used daily until depletion.
Chain of human cathepsin L (P07711 114-333): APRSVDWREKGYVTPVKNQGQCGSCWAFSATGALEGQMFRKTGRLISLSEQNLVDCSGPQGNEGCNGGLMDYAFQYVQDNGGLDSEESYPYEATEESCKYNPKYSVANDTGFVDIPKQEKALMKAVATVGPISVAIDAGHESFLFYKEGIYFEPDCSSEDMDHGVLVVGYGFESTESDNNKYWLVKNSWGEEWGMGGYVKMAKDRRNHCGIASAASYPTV
(§2) For assays of cathepsin L and B, inhibitors were evaluated in 0.25-mL reaction mixtures containing a buffer of sodium acetate (pH 5.5), 1 mM CHAPS, 1 mM Na2EDTA, and 5 mM DTT at 25° C. The fluorogenic substrate Cbz-Phe-Arg-7-amino-4-methyl-coumarin (Z-FR-AMC) was dissolved in 100% DMSO, as were all inhibitors, and aliquots of both substrates and inhibitors were added to reaction mixtures to final concentrations of DMSO of 10% (v/v). […] Formation of the fluorescent product AMC was monitored over 30-60-minute time courses for reaction mixtures in 96-well black microplates (Corning Costar®). Rates of peptidolysis of the dipeptide-AMC substrate(s) were measured on either a SpectraMax M5 (Molecular Devices) or a Synergy HTX (Biotek, Wisnooki, VT) microplate reader with λex=360 nm, λem=460 nm in ≥8-sec intervals. Control samples excluded substrate. The measured relative fluorescence units (RFUs) of generated AMC were converted to reaction rates of μM/s by use of a standard curve of known AMC concentrations obtained for both plate readers.

Assay [4] has as its target human cathepsin B (Homo sapiens (Human), UniProt P07858). Briefly: Human cathepsin B inhibition, Z-FR-AMC assay. It counts as biochemical. As for the experimental part:
as §1, §2

Assay [5] deals with T. cruzi (Ca-I/72) in C2C12 murine cardiomyoblasts. Put plainly: T. cruzi-infected murine cardiomyoblasts (C2C12). It counts as cell-based, Trypanosoma cruzi. The note with it: read-out: EC50 T. cruzi-infected cardiomyoblasts. As for the experimental part: For the evaluation of the antitrypanocidal activity of cruzain inhibitors, we infected a C2C12 mouse cardiomyoblast cell line (ATCC CRL-1772) with T. cruzi strain Ca-I/72 (a gift from James Dvorak, National Institutes of Health) in […] plates. […] The plates were incubated at 37° C. for 48 h, and the wells were fixed with 2% paraformaldehyde in PBS and stained with 5 μg mL-1 4,6-diamidino-2-phenylindole. After at least 30 min of incubation at room temperature in the dark, the plates were read in an automated microscope, ImageXpress Micro XL (Molecular Devices), and the images were analyzed by custom-built software to quantify and assess viability of the parasites, as well as the host cells independently. The compilation of data was used to calculate the antiparasitic activity (EC50) and host cytotoxicity (CC50).
T. cruzi infection was evaluated in C2C12 murine cardiomyoblast cells. 384-microwell plates containing C2C12 murine cardiomyoblast cells were infected with 10^3 and 10^4 cells of T. cruzi (Ca-I/72), to which was added 3-fold serially-dilutions of inhibitor with maximal concentrations of 10 μM, followed by incubation at 37° C. for 2 days. The wells were fixed with 2% PFA in PBS, and stained by 5 μg/ml of DAPI. After >30 min of incubation in a dark environment, the plates were read on an ImageXpress MicroXL microscope (Molecular Devices). The images were analyzed to quantify parasites as well host cells.

For assay [6], the system named is T. b. brucei procyclic forms. Briefly: Growth of axenic cultures of T. b. brucei procyclic forms (PCFs). The note with it: Trypanosoma brucei, axenic culture; read-out: EC50 T. b. brucei PCF. It counts as cell-based, Trypanosoma brucei brucei.
Assay [7] concerns T. b. brucei bloodstream forms. Put plainly: Growth of axenic cultures of T. b. brucei bloodstream forms (BSFs). The following applies: Trypanosoma brucei, read-out: EC50 T. b. brucei BSF, axenic culture.
Description: Selected cruzain inhibitors were evaluated in axenic cell cultures of T. b. brucei and T. cruzi. Procyclic trypomastigotes of T. b. brucei (ATCC PRA-381) were grown in the SDM-79 medium at 26° C., and bloodstream forms (ATCC PRA-383) were grown at 37° C. in the HMI-9 medium at 5% C02. […] Both forms of T. b. brucei and T. cruzi were grown in media containing 10% fetal bovine serum (FBS) and penicillin/streptomycin (50 U mL^−1). […] Control samples contained equal amounts of DMSO. T. b. brucei and T. cruzi (5 mL in flask cultures) were seeded at ˜3×10^6 cells and diluted daily, maintaining a mid-log growth phase for up to 120 h. […] After each cell dilution, fresh compound or an equal volume of DMSO (control samples) was supplemented into the cultures, while maintaining a constant concentration of each inhibitor. Cell counts were scored using a Z2 Coulter Counter.
In vitro Cell Assays. Bloodstream form T. b. brucei strain SM427 was grown in HM1-9 medium that included fetal bovine serum (10%) and antibiotics (100 U/mL penicillin-streptomycin, Gibco™). Inhibitors dissolved in 100% (v/v) DMSO stock solutions were added at final concentrations of 0.5-20 μM (final concentrations of DMSO were <1% (v/v)). T. b. brucei were seeded at ˜1×10^6 cells at 37° C., and diluted daily to maintain a log phase of growth for up to 96 h. […] After each dilution, the cell cultures were supplemented with inhibitor or DMSO (control) to keep concentrations constant. Cell density was determined and graphed as previously reported.^36 Trypanosomes were quantified using a Z2 Coulter Counter, and values of EC50 were determined after 3-4 days of treatment by the interpolation method of Huber and Koella.^37
Assay [8] concerns the target T1, cruzain. Briefly: Kinetic parameters of peptide substrates for cruzain. The following applies: for Km / kcat / kcat/Km: pH 7.5, 25° C., 10% DMSO; for kcat rel: relative to Cbz-Phe-Arg-AMC. It counts as biochemical. As for the experimental part:
All enzyme assays were performed at 25° C. Initial rates of the peptidolytic reaction catalyzed by cruzain were measured by monitoring the fluorescence generated by cleavage of the dipeptide-AMC bond. Assays were conducted in 96-well plates (Greiner; flat-bottom, clear black plates) in a total volume of 250 μL, containing either 50 mM MES (pH 7.5), 50 mM TAPSO, 100 mM DEA, 1 mM CHAPS, 1 mM Na2EDTA, 5 mM DTT, and 10% DMSO (v/v) or 50 mM sodium acetate (pH 5.5), 50 mM MES, 100 mM TEA, 1 mM CHAPS, 1 mM Na2EDTA, 5 mM DTT, and 10% DMSO (v/v). Substrates were dissolved in 100% DMSO and were then diluted 10-fold such that when added to reaction mixtures, final DMSO concentration was 10% (v/v). Reactions were initiated with the addition of 1-10 μL of cruzain (final concentrations: 0.1-3.0 nM (preincubation studies)). Fluorescence was measured on either a SpectraMax M5 (Molecular Devices) or a Synergy HTX (BioTek, Winooski, VT) microplate reader (λex=360 nm, λem=460 nm). Initial rates were determined from continuous kinetic time courses and calculated from the earliest time points, typically at less than 10 min.
Initial velocity data for cruzain-catalyzed reactions of fluorogenic peptide substrates were determined by fitting to eq 1 using GraphPad Prism 6.0 or SigmaPlot 12.0. For eq 1, kcat is the turnover number, [E]t is the concentration of active sites of cruzain, and Ka is the Michaelis constant for the substrate A. Cruzain concentrations were determined by spectrophotometric analysis of purified sample solutions as described.^44

The mark [9] stands for this setting: obtained >10 minutes following initiation of reaction by addition of enzyme, read-out: Ki* Cruzain.
Where [10] appears, read: Trypanosoma cruzi, C2C12, C2C12 murine cardiomyoblasts.

T1 sequence (P25779 123-467 limits assumed): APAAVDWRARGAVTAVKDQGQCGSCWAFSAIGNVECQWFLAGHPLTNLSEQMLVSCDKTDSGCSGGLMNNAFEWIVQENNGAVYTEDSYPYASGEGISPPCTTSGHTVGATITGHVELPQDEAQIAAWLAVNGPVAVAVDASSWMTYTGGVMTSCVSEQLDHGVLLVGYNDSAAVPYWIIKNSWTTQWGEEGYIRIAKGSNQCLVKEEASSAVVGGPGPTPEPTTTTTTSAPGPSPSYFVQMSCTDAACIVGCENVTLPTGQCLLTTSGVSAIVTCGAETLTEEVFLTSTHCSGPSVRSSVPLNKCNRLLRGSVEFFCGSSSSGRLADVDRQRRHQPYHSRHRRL

As to `COc1ccccc1C[C@@H](C=O)NC(=O)[C@H](Cc1ccccc1)NC(=O)OCc1ccccc1` [Compound 29] (Cbz-Phe-[Phe(2-OMe)]-aldehyde), the Ki in assay [1] (setting [9]) is 0.022 µM; in assay [2], over 10 µM.

Take `Cc1ccc2c(c1)C[C@H](NC(=O)[C@H](Cc1ccccc1)NC(=O)OCc1ccccc1)C(O)O2` (stereo partly drawn) [Compound 32, Benzyl ((2S)-1-(((3S)-2-hydroxy-6-methylchroman-3-yl)amino)-1-oxo-3-phenylpropan-2-yl)carbamate]: the Ki in assay [1] (Ki* Cruzain, obtained >10 minutes following initiation of reaction by addition of enzyme) was 0.1 µM; in assay [1] (setting [9]) it was 0.103 ± 0.005 µM; in assay [3] (pH 5.5, 25° C., read-out: Ki* hCatL) it was 0.058 ± 0.002 µM; in assay [4] (pH 5.5, 25° C., read-out: Ki* hCatB), 6.1 ± 0.9 µM; in assay [2] (pH 7.5), over 10 µM. The EC50 is 3 to 5.7 µM in assay [5] (C2C12 murine cardiomyoblasts), 5.7 ± 0.6 µM in assay [5] (setting [10]), 7 µM in assay [6] and 0.5 µM in assay [7].

As for `Cc1cc(=O)oc2cc(NC(=O)[C@H](CCCN=C(N)N)NC(=O)[C@H](CC(C)C)NC(=O)OCc3ccccc3)ccc12` [Compound S4, Cbz-Leu-Arg-AMC], in assay [8], the Michaelis constant (Km) worked out at 2.2 ± 0.3 µM, the kcat came out at 8.4 ± 0.4 s⁻¹, the kcat/Km came to 3.8e+06 ± 700000 M⁻¹ s⁻¹ and the kcat rel was 0.88.

With `Cc1cc(=O)oc2cc(NC(=O)C(CCc3ccccc3)NC(=O)C(CCCN=C(N)N)NC(=O)OCc3ccccc3)ccc12` (stereo not drawn) [Compound S10, Cbz-Arg-hPhe-AMC], in assay [8], the Km stood at 6.8 µM; the turnover number (kcat) is 4.9 s⁻¹ and 4.9 ± 0.1 s⁻¹; the catalytic efficiency (kcat/Km) is 700000 ± 40000 M⁻¹ s⁻¹; the kcat rel was found to be 0.51.

On to `Cc1cc(=O)oc2cc(NC(=O)[C@H](CCc3ccccc3)NC(=O)[C@H](Cc3ccccc3)NC(=O)OCc3ccccc3)ccc12` [Compound S2, Cbz-Phe-hPhe-AMC] (Cbz-Phe-[hPhe]-{AMC}), for which, in assay [8], the Km came out at 0.26 ± 0.06 µM; the kcat is 2.0 ± 0.2 s⁻¹; the kcat/Km was 8e+06 M⁻¹ s⁻¹ and 8e+06 ± 2e+06 M⁻¹ s⁻¹; the kcat rel is 0.21.

Take `Cc1cc(=O)oc2cc(NC(=O)[C@H](CCCN=C(N)N)NC(=O)[C@H](Cc3ccccc3)NC(=O)OCc3ccccc3)ccc12` [Compound S1, Cbz-Phe-Arg-AMC] (Cbz-Phe-Arg-{AMC}): the Km in assay [3] (pH 5.5) came out at 2.9 µM. For the same molecule, the Km in assay [4] (pH 5.5) was determined as 150 µM. Further, in assay [8], the Km amounted to 0.89 ± 0.09 µM, the turnover number (kcat) was determined as 9.6 ± 0.2 s⁻¹, the kcat/Km is 1.1e+07 ± 1e+06 M⁻¹ s⁻¹ and the kcat rel is given as 1.00. In assay [8] (listed as Cbz-Phe-Arg-AMC), the Km is 0.9 µM and the kcat/Km turned out to be 1.1e+07 M⁻¹ s⁻¹.

For `NCCCC[C@@H](/C=C/c1ccccn1)NC(=O)[C@H](Cc1ccccc1)NC(=O)OCc1ccccc1` [Compound 20, (S,E)-5-((S)-2-(((Benzyloxy)carbonyl)amino)-3-phenylpropanamido)-7-(pyridin-2-yl)hept-6-en-1-aminium Chloride], the Ki in assay [1] (apparent initial inhibition constant, 25° C., read-out: Ki) was 17.3 ± 0.3 µM; in assay [1] (apparent tight-binding inhibition constant, 25° C., read-out: Ki*), 0.87 µM. In addition, the EC50 in assay [5] (setting [10]) was in the range of 5 to 8 µM.
